In patent US8975398B2, “NAMPT inhibitors” (AbbVie Inc., priority 2012, dated 2015):

Legend:
[1] = molecular target: NAMPT (human, recombinant, C-terminally His-tagged) (Homo sapiens, UniProt P43490); assay: Time-Resolved Fluorescence Resonance Energy Transfer (TR-FRET) Binding Assay of NAMPT; details: 6.8 nM NAMPT, 200 nM probe, equilibrated 3 hours, absence of substrates
How it was run: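 Probe displacement measured by TR-FRET (Ex 337 nm; 520/495 nm ratio) after 3 h room-temperature equilibration of compound with 6.8 nM His-tagged human NAMPT, 1 nM Tb-anti-His antibody and 200 nM Oregon Green 488 nicotinamide-site probe, pH 7.5 HEPES buffer, 2% DMSO. Control-normalized data fit four-parameter logistic for IC50.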

[2] = molecular target: NAMPT (Homo sapiens, UniProt P43490); assay: Time-Resolved Fluorescence Resonance Energy Transfer (TR-FRET) Binding Assay of NAMPT with PRPP; details: 2 nM NAMPT, 2 nM probe, 200 uM PRPP and 2.5 mM ATP, equilibrated 16 hours
How it was run: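 Binding measured by TR-FRET after a 16-hour equilibration meant to permit enzymatic compound modification. Substrates present at 200 uM PRPP and 2.5 mM ATP, with 2 nM enzyme, 2 nM probe, 1 nM Tb-anti-His antibody and 2% DMSO final.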

Chain of NAMPT (P43490 whole entry): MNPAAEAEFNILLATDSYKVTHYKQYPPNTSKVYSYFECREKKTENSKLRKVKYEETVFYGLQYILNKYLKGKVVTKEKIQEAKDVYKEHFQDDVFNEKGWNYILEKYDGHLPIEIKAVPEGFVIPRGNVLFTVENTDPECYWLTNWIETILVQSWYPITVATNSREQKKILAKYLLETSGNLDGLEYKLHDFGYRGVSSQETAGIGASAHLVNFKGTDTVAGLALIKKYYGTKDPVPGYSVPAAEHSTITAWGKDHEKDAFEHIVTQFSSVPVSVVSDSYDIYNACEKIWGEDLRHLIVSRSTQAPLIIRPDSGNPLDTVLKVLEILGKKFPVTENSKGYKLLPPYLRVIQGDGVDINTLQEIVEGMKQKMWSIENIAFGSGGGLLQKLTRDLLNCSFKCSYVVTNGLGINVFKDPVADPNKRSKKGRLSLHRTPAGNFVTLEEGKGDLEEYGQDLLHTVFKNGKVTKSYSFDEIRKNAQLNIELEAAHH
Chain of NAMPT (human, recombinant, C-terminally His-tagged) (P43490 whole entry): as above

SMILES | IC50 [1] [nM] | IC50 [2] [nM]
O=C(Nc1ccc(OC2CN(C(=O)c3ccc(F)cc3)C2)cc1)C1CN(c2ccnnc2)C1 [Example 199, N-(4-{[1-(4-fluorobenzoyl)azetidin-3-yl]oxy}phenyl)-1-(pyridazin-4-yl)azetidine-3-carboxamide] | 33.7 | 28
CCC(=O)N1CCC(Oc2ccc(NC(=O)C3CN(c4cccnc4)C3)cc2)CC1 [Example 65, N-{4-[(1-propanoylpiperidin-4-yl)oxy]phenyl}-1-(pyridin-3-yl)azetidine-3-carboxamide] | 121 | 0.704
Cc1ncccc1N1CC(C(=O)Nc2ccc(C3CCN(C(=O)CCN4CCOCC4)CC3)cc2)C1 [Example 184, 1-(2-methylpyridin-3-yl)-N-(4-{1-[3-(morpholin-4-yl)propanoyl]piperidin-4-yl}phenyl)azetidine-3-carboxamide] | 625 | 78.9
CC(=O)N[C@@H](CC(C)C)C(=O)N1CCC(c2ccc(NC(=O)C3CN(c4cccnc4C)C3)cc2)CC1 [Example 180, N-{4-[1-(N-acetyl-L-leucyl)piperidin-4-yl]phenyl}-1-(2-methylpyridin-3-yl)azetidine-3-carboxamide] | 304 | 123
CC(C)CCC(=O)N1CCC(c2ccc(NC(=O)C3CN(c4cccnn4)C3)cc2)CC1 [Example 324, N-{4-[1-(4-methylpentanoyl)piperidin-4-yl]phenyl}-1-(pyridazin-3-yl)azetidine-3-carboxamide] | 47.3 | 1.04
Cc1ncccc1N1CC(C(=O)Nc2ccc(C3CCN(C(=O)CC4CCCC4)CC3)cc2)C1 [Example 162, N-{4-[1-(cyclopentylacetyl)piperidin-4-yl]phenyl}-1-(2-methylpyridin-3-yl)azetidine-3-carboxamide] | 144 | 71
CC(C)(C)C(=O)N1CCC(c2ccc(NC(=O)C3CN(c4cccnc4)C3)cc2)CC1 [Example 125, N-{4-[1-(2,2-dimethylpropanoyl)piperidin-4-yl]phenyl}-1-(pyridin-3-yl)azetidine-3-carboxamide] | 15.4 | 0.518
O=C(Nc1ccc(C2CCN(C(=O)Cc3ccccc3F)CC2)cc1)C1CN(c2cccnn2)C1 [Example 366, N-(4-{1-[(2-fluorophenyl)acetyl]piperidin-4-yl}phenyl)-1-(pyridazin-3-yl)azetidine-3-carboxamide] | 35.1 | 0.681

Further molecules by falling IC50 [1], results first:

IC50 [1] [nM] | IC50 [2] [nM] | SMILES
858 | 2.88 | O=C(Nc1ccc(OC2CCN(C(=O)[C@@H]3CCCO3)CC2)cc1)[C@H]1CCN(c2cccnc2)C1 [Example 13, (3S)-1-(pyridin-3-yl)-N-[4-({1-[(2S)-tetrahydrofuran-2-ylcarbonyl]piperidin-4-yl}oxy)phenyl]pyrrolidine-3-carboxamide]
544 | 2.34 | O=C(Nc1ccc(OC2CCN(C(=O)CC3CCOCC3)CC2)cc1)C1CN(c2cnccc2F)C1 [Example 6, 1-(4-fluoropyridin-3-yl)-N-(4-{[1-(tetrahydro-2H-pyran-4-ylacetyl)piperidin-4-yl]oxy}phenyl)azetidine-3-carboxamide]
158 | 1.07 | CC(C)CC(=O)N1CCC(Oc2ccc(NC(=O)C3CN(c4cccnn4)C3)cc2)CC1 [Example 225, N-(4-{[1-(3-methylbutanoyl)piperidin-4-yl]oxy}phenyl)-1-(pyridazin-3-yl)azetidine-3-carboxamide]
109 | 35 | O=C(Nc1ccc(OC2CCN(C(=O)Cc3cccc(C(F)(F)F)c3)CC2)cc1)C1CN(c2ccnnc2)C1 [Example 305, 1-(pyridazin-4-yl)-N-{4-[(1-{[3-(trifluoromethyl)phenyl]acetyl}piperidin-4-yl)oxy]phenyl}azetidine-3-carboxamide]
28.1 | 0.598 | O=C(Nc1ccc(C2CCN(C(=O)CC3CCOCC3)CC2)cc1)C1CN(c2cccnc2)C1 [Example 25, 1-(pyridin-3-yl)-N-{4-[1-(tetrahydro-2H-pyran-4-ylacetyl)piperidin-4-yl]phenyl}azetidine-3-carboxamide]
